A short description of data set [1]: Chemical stability under acidic conditions. The class given is physicochemical. The note with it: pH 5. On the procedure:
The reported chemistry was carried out on a very small scale, with no detailed analysis of the purity profile of the product 1.

Another data set has as its system thymidilate synthase. The following applies: read-out: IC50 for the enzyme (thymidilate synthase); cited from earlier work.
The target of data set [2] is T1, reduced folate carrier protein (RFCP) (Homo sapiens, UniProt P41440).
T1 sequence (P41440 1-591): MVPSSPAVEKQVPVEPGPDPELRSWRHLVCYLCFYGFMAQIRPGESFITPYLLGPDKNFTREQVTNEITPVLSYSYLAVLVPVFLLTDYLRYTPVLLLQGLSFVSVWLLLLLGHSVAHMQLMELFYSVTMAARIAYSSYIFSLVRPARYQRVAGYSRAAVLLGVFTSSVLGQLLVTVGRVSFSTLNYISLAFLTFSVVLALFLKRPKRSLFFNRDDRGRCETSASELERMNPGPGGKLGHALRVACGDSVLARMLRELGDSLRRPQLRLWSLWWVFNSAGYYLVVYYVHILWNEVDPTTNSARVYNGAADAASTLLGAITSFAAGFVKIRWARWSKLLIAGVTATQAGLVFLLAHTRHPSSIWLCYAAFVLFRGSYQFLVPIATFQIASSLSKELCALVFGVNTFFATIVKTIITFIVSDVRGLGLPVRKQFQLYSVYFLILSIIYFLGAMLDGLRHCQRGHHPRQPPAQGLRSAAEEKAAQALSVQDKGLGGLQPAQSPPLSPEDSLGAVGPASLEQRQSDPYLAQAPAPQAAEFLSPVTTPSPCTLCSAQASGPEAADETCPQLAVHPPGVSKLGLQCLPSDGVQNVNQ
The following applies: not a substrate for RFCP; cited from earlier work.

In a further data set the target is folate receptor α (FRα) (Homo sapiens, UniProt P15328). The following applies: read-out: Ki (affinity) for folate receptor α (FRα); cited from earlier work.
Sequence of folate receptor α (FRα) (P15328 25-234, species assumed): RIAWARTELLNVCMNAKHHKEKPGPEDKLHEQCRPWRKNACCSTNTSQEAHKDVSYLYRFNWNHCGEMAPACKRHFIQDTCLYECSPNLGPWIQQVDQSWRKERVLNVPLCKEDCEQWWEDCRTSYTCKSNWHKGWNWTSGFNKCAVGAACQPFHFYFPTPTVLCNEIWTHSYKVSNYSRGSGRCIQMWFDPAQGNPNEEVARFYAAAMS
Data set [3] deals with T2, polyglutamoylation synthase enzyme (Homo sapiens, UniProt Q05932).
T2 sequence (Q05932 43-587): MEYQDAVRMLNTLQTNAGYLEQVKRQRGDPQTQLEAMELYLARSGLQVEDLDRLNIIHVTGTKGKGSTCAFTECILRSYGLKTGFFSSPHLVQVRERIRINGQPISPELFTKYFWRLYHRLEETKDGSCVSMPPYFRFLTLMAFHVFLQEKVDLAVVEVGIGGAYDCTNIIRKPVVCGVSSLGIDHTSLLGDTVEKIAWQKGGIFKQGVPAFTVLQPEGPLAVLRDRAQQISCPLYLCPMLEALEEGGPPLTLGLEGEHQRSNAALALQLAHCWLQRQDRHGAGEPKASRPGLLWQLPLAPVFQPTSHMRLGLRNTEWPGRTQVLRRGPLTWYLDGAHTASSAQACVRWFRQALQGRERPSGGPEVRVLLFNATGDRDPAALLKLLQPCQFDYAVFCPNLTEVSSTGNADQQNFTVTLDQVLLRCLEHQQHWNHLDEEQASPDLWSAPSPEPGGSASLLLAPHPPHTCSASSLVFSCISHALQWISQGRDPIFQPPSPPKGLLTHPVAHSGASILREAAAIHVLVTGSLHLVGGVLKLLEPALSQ
The note with it: cited from earlier work.

The term IC50 denotes the concentration at which inhibition is half-maximal. What is called Ki is the equilibrium dissociation constant of an inhibitor or competing ligand from its target.

As for `C#CCN(c1ccc(C(=O)N[C@@H](CCC(=O)N[C@H](CCC(=O)O)C(=O)O)C(=O)O)cc1)[C@H]1CCc2cc3nc(CO)[nH]c(=O)c3cc21` [Compound 1, (2,R)-((4,S)-carboxy-4-(4,N-(((6S)-2-(hydroxymethyl)-4-oxo-3,4,7,8-tetrahydro-3H-cyclopenta[g]quinazolin-6-yl)-N-(prop-2-ynyl)amino)benzamido)butanamido)pentanedioic acid], in data set [1], the “Stability in aqueous solution” value was “limited stability”.
Turning to `C#CCN(c1ccc(C(=O)N[C@@H](CCC(=O)N[C@H](CCC(=O)[O-])C(=O)[O-])C(=O)[O-])cc1)[C@H]1CCc2cc3nc(CO)[nH]c(=O)c3cc21.[Na+].[Na+].[Na+]` [Compound 2, (2,R)-((4,S)-carboxy-4-(4,N-(((6S)-2-(hydroxymethyl)-4-oxo-3,4,7,8-tetrahydro-3H-cyclopenta[g]quinazolin-6-yl)-N-(prop-2-ynyl)amino)benzamido)butanamido)pentanedioic acid trisodium salt], in the data set on thymidilate synthase, the IC50 is 3 nM. The Ki in data set [2] was over 250000 nM; at folate receptor α (FRα), 0.5 nM. Moreover, the “Substrate for the polyglutamoylation synthase enzyme” value in data set [3] was “not a substrate”.

(Values after patent US9458188B2, “Efficient peptide couplings and their use in the synthesis and isolation of a cyclopenta (G) quinazoline trisodium salt” (BTG INTERNATIONAL LIMITED, priority 2010, dated 2016).)
